A word on the Ki: it is the dissociation constant of the complex between target and ligand, obtained from inhibition or displacement. The low end stands for higher affinity, the high end for lower affinity.

The target of the assay is Human immunodeficiency virus type 1 protease (Human immunodeficiency virus 1, UniProt Q72874). In words: Inhibitory constant against HIV-1 protease.
Regarding `COC(=O)[C@@H](NC(=O)[C@@H](/C=C/[C@@H](C(=O)N[C@H](C(=O)OC)C(C)C)C(C)C)Cc1ccccc1)C(C)C`, affinity was put at a Ki of 5 µM.
To `COC(=O)[C@@H](NC(=O)[C@@H](C)/C=C/[C@@H](Cc1ccccc1)C(=O)N[C@H](C(=O)OC)C(C)C)C(C)C` belongs above 67 µM; to `COC(=O)[C@@H](NC(=O)[C@@H](/C=C/[C@H](C)C(=O)N[C@H](C(=O)OC)C(C)C)C(C)C)C(C)C`, above 67 µM.

Source of the values: ChEMBL document CHEMBL1126530, “A concise enantioselective synthesis of rans-olefin dipeptide isosteres” (Bioorg Med Chem Lett, 1993).
